Measurements from BigSolDB 2.1.

O=P(O)(c1ccccc1)c1ccccc1
Conditions | solubility (mole fraction)
in 2-ethoxyethanol, 288.15 K | 0.00619
in 2-ethoxyethanol, 293.18 K | 0.00716
in 2-ethoxyethanol, 298.17 K | 0.0081
in 2-ethoxyethanol, 303.04 K | 0.00924
in 2-ethoxyethanol, 308.11 K | 0.0106
in 2-ethoxyethanol, 313.15 K | 0.0118
in 2-ethoxyethanol, 318.2 K | 0.0135
in 2-ethoxyethanol, 323.16 K | 0.0151
in 2-ethoxyethanol, 328.2 K | 0.0172
in 2-ethoxyethanol, 332.96 K | 0.0196
in 2-ethoxyethanol, 338.03 K | 0.0223
in 2-ethoxyethanol, 343.24 K | 0.0252
in 2-ethoxyethanol, 348.24 K | 0.0285
in 2-ethoxyethanol, 353.25 K | 0.0321
in 2-ethoxyethanol, 358.29 K | 0.036
in 2-ethoxyethanol, 363.1 K | 0.0401
in acetic acid, 293.23 K | 0.00426
in acetic acid, 303.15 K | 0.00604
in acetic acid, 313.03 K | 0.00827
in acetic acid, 323.15 K | 0.0112
in acetic acid, 333.21 K | 0.0151
in acetic acid, 343.04 K | 0.0209
in acetone, 293.25 K | 0.00051
in acetone, 298.18 K | 0.00068
in acetone, 303.12 K | 0.00091
in acetone, 308.23 K | 0.0012
in acetone, 313.19 K | 0.00156
in acetone, 318.21 K | 0.00203
in acetone, 323.24 K | 0.00244
in benzene, 293.15 K | 0.0007
in benzene, 303.19 K | 0.00112
in benzene, 313.17 K | 0.00183
in benzene, 322.95 K | 0.00291
in benzene, 333.21 K | 0.00459
in benzene, 343.12 K | 0.00706
in ethanol, 283.15 K | 0.00575
in ethanol, 288.15 K | 0.00671
in ethanol, 293.1 K | 0.00774
in ethanol, 298.07 K | 0.00889
in ethanol, 303.07 K | 0.0102
in ethanol, 308.15 K | 0.0117
in ethanol, 313.16 K | 0.0134
in ethanol, 318.16 K | 0.0152
in ethanol, 322.84 K | 0.0173
in ethanol, 327.94 K | 0.0198
in ethanol, 333.1 K | 0.0231
in ethanol, 337.97 K | 0.0264
in ethanol, 342.9 K | 0.0302
in ethyl acetate, 293.06 K | 0.00052
in ethyl acetate, 298.15 K | 0.0006
in ethyl acetate, 303.15 K | 0.00075
in ethyl acetate, 308.17 K | 0.00098
in ethyl acetate, 313.23 K | 0.00121
in ethyl acetate, 318.04 K | 0.00144
in ethyl acetate, 323.1 K | 0.00176
in ethyl acetate, 328.13 K | 0.00208
in ethyl acetate, 333.25 K | 0.00247
in ethyl acetate, 337.95 K | 0.00318
in isopropanol, 288.15 K | 0.00426
in isopropanol, 293.15 K | 0.00503
in isopropanol, 297.98 K | 0.00594
in isopropanol, 303.09 K | 0.00696
in isopropanol, 308.05 K | 0.00803
in isopropanol, 313.15 K | 0.00931
in isopropanol, 318.06 K | 0.0107
in isopropanol, 323.08 K | 0.0123
in isopropanol, 328.12 K | 0.0144
in isopropanol, 332.97 K | 0.0165
in isopropanol, 338.17 K | 0.0189
in isopropanol, 342.94 K | 0.0223
in isopropanol, 347.8 K | 0.0257
in toluene, 293.15 K | 0.00049
in toluene, 303.16 K | 0.00074
in toluene, 313.18 K | 0.00107
in toluene, 323.08 K | 0.00157
in toluene, 333.17 K | 0.00232
in toluene, 343.25 K | 0.00326
in toluene, 352.95 K | 0.00462
in toluene, 362.65 K | 0.00651
in water, 303.14 K | 5e-05
in water, 313.17 K | 8e-05
in water, 323.13 K | 0.00011
in water, 333 K | 0.00014
in water, 343.05 K | 0.00018
in water, 353.05 K | 0.00023
